Measurements from US9062071B2, “Substituted piperidines as HDM2 inhibitors” (Merck Sharp & Dohme Corp, priority 2011, dated 2015).

Target: HDM2 protein (Homo sapiens, UniProt Q00987)
Test: fluorescence polarization screening assay (FP IC50)
Assay type: binding
Conditions: class symbols
Experimental: The compounds were evaluated to determine activity at the HDM2 protein by known methods such as the fluorescence polarization screening assay that measures the inhibitory concentration that achieves 50% of maximal activity (FP IC50) and the dissociation constant for inhibitor binding (FP Ki). [Zhang et al., J. Analytical Biochemistry 331: 138-146 (2004)].

Chain of HDM2 protein (Q00987 whole entry): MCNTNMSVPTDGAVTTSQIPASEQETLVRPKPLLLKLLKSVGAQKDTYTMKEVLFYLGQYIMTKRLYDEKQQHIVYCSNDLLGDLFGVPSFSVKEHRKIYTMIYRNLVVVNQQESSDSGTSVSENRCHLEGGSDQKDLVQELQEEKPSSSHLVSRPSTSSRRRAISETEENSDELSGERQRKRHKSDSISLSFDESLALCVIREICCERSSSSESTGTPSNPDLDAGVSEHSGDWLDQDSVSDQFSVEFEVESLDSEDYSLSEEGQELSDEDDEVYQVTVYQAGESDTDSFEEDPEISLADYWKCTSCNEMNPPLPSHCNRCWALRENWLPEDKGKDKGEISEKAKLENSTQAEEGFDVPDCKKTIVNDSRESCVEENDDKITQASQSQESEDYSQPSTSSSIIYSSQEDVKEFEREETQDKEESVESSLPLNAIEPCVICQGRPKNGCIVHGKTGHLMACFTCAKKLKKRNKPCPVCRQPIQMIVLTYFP

| IC50 [nM] | SMILES |
| --- | --- |
| 1 to 100 | CCN1CCN(CC[C@H]2N(C(=O)c3ncccc3C(F)(F)F)CCC[C@@]2(Oc2csc(C(F)(F)F)c2)C(=O)N2CCc3cc(Cl)ccc3C2)CC1 [Compound A114, 6-chloro-2-{[(2R,3S)-2-[2-(4-ethylpiperazin-1-yl)ethyl]-1-{[3-(trifluoromethyl)pyridin-2-yl]carbonyl}-3-{[5-(trifluoromethyl)thiophen-3-yl]oxy}piperidin-3-yl]carbonyl}-1,2,3,4-tetrahydroisoquinoline] |
| 1 to 100 | CCC[C@H]1N(C(=O)c2ncccc2C(F)(F)F)CCC[C@@]1(Oc1csc(C(F)(F)F)c1)C(=O)N1Cc2ccc(Cl)cc2C[C@@H]1CN(C)C(=O)[C@@H](C)OC [Compound A151, (2R)-N-{[(3R)-6-chloro-2-{[(2R,3S)-2-propyl-1-{[3-(trifluoromethyl)pyridin-2-yl]carbonyl}-3-{[5-(trifluoromethyl)thiophen-3-yl]oxy}piperidin-3-yl]carbonyl}-1,2,3,4-tetrahydroisoquinolin-3-yl]methyl}-2-methoxy-N-methylpropanamide] |
| 1 to 100 | CCC[C@H]1N(C(=O)c2ncccc2C(F)(F)F)CCC[C@@]1(Oc1csc(C(F)(F)F)c1)C(=O)N1CCc2cc(F)ccc2C1CCCCC(=O)O (stereo partly drawn) [Compound A41, 5-(6-fluoro-2-{[(2R,3S)-2-propyl-1-{[3-(trifluoromethyl)pyridin-2-yl]carbonyl}-3-{[5-(trifluoromethyl)thiophen-3-yl]oxy}piperidin-3-yl]carbonyl}-1,2,3,4-tetrahydroisoquinolin-1-yl)pentanoic acid] |
| 1 to 100 | CCC[C@H]1N(C(=O)c2ncccc2C(F)(F)F)CCC[C@@]1(Oc1csc(C(F)(F)F)c1)C(=O)N1CCc2sc(Cl)cc2C1CCC(=O)NS(C)(=O)=O (stereo partly drawn) [Compound A36, 3-(2-chloro-5-{[(2R,3S)-2-propyl-1-{[3-(trifluoromethyl)pyridin-2-yl]carbonyl}-3-{[5-(trifluoromethyl)thiophen-3-yl]oxy}piperidin-3-yl]carbonyl}-4,5,6,7-tetrahydrothieno[3,2-c]pyridin-4-yl)-N-(methylsulfonyl) propanamide] |
| 1 to 100 | NC(=O)C1c2ccc(Cl)cc2CCN1C(=O)[C@]1(Oc2csc(C(F)(F)F)c2)CCCN(C(=O)c2ncccc2C(F)(F)F)[C@@H]1CC(=O)O (stereo partly drawn) [Compound A95, [(2R,3S)-3-[(1-carbamoyl-6-chloro-3,4-dihydroisoquinolin-2(1H)-yl)carbonyl]-1-{[3-(trifluoromethyl)pyridin-2-yl]carbonyl}-3-{[5-(trifluoromethyl)thiophen-3-yl]oxy}piperidin-2-yl]acetic acid] |
| 1 to 100 | CCC[C@H]1N(C(=O)c2ncccc2C(F)(F)F)CCC[C@@]1(Oc1csc(C(F)(F)F)c1)C(=O)N1Cc2cc(F)ccc2CC1C(=O)O (stereo in doubt) [Compound A126, (3S)-7-fluoro-2-{[(2R,3S)-2-propyl-1-{[3-(trifluoromethyl)pyridin-2-yl]carbonyl}-3-{[5-(trifluoromethyl)thiophen-3-yl]oxy}piperidin-3-yl]carbonyl}-1,2,3,4-tetrahydroisoquinoline-3-carboxylic acid] |
| 1 to 100 | CCC[C@H]1N(C(=O)c2ncccc2C(F)(F)F)CCC[C@@]1(Oc1csc(C(F)(F)F)c1)C(=O)N1CCc2cc(Cl)ccc2C1CC(C)(C)C(=O)NS(C)(=O)=O (single isomer, unassigned) [Compound A69] |
| 1 to 100 | NC(=O)C1c2ccc(Cl)cc2CCN1C(=O)[C@]1(Oc2csc(C(F)(F)F)c2)CCCN(C(=O)c2ncccc2C(F)(F)F)[C@@H]1CC(=O)O (stereo partly drawn) [Compound A97, [(2R,3S)-3-[(1-carbamoyl-6-chloro-3,4-dihydroisoquinolin-2(1H)-yl)carbonyl]-1-{[3-(trifluoromethyl)pyridin-2-yl]carbonyl}-3-{[5-(trifluoromethyl)thiophen-3-yl]oxy}piperidin-2-yl]acetic acid] |
| 1 to 100 | CCC[C@H]1N(C(=O)c2ncccc2C(F)(F)F)CCC[C@@]1(Oc1csc(C(F)(F)F)c1)C(=O)N1Cc2ccc(F)cc2C[C@H]1C[C@H](C(=O)O)C(C)C [Compound A153, (2S)-2-{[(3R)-6-fluoro-2-{[(2R,3S)-2-propyl-1-{[3-(trifluoromethyl)pyridin-2-yl]carbonyl}-3-{[5-(trifluoromethyl)thiophen-3-yl]oxy}piperidin-3-yl]carbonyl}-1,2,3,4-tetrahydroisoquinolin-3-yl]methyl}-3-methylbutanoic acid] |
| 1 to 100 | CCC[C@H]1N(C(=O)c2ncccc2C(F)(F)F)CCC[C@@]1(Oc1csc(C(F)(F)F)c1)C(=O)N1CCc2ccsc2C1CC(C)(C)C(=O)NCc1nnn[nH]1 (stereo partly drawn) [Compound A30, 2,2-dimethyl-3-(6-{[(2R,3S)-2-propyl-1-{[3-(trifluoromethyl)pyridin-2-yl]carbonyl}-3-{[5-(trifluoromethyl)thiophen-3-yl]oxy}piperidin-3-yl]carbonyl}-4,5,6,7-tetrahydrothieno[2,3-c]pyridin-7-yl)-N-(1H-tetrazol-5-ylmethyl)propanamide] |
| 101 to 20000 | CCC[C@H]1N(C(=O)c2ncccc2C(F)(F)F)CCC[C@@]1(Oc1csc(C(F)(F)F)c1)C(=O)N1CCc2cc(C#N)ccc2C1 [Compound A46] |
| 101 to 20000 | CCC[C@H]1N(C(=O)c2ncccc2C(F)(F)F)CCC[C@@]1(Oc1csc(C(F)(F)F)c1)C(=O)N1CCc2ccc(C#N)cc2C1 [Compound A5, 2-{[(2R,3S)-2-propyl-1-{[3-(trifluoromethyl)pyridin-2-yl]carbonyl}-3-{[5-(trifluoromethyl)thiophen-3-yl]oxy}piperidin-3-yl]carbonyl}-1,2,3,4-tetrahydroisoquinoline-7-carbonitrile] |
| 101 to 20000 | CCC[C@H]1N(C(=O)c2ncccc2C(F)(F)F)CCC[C@@]1(Oc1csc(C(F)(F)F)c1)C(=O)N1CCc2cc(F)ccc2C1C(=O)N1CCN(CCO)CC1 (stereo partly drawn) [Compound A94, 2-{4-[(6-fluoro-2-{[(2R,3S)-2-propyl-1-{[3-(trifluoromethyl)pyridin-2-yl]carbonyl}-3-{[5-(trifluoromethyl)thiophen-3-yl]oxy}piperidin-3-yl]carbonyl}-1,2,3,4-tetrahydroisoquinolin-1-yl)carbonyl]piperazin-1-yl}ethanol] |
| 101 to 20000 | CCC[C@H]1N(C(=O)c2ncccc2C(F)(F)F)CCC[C@@]1(Oc1csc(C(F)(F)F)c1)C(=O)N1CCc2ccc(C(N)=O)cc2C1 [Compound A6, 2-{[(2R,3S)-2-propyl-1-{[3-(trifluoromethyl)pyridin-2-yl]carbonyl}-3-{[5-(trifluoromethyl)thiophen-3-yl]oxy}piperidin-3-yl]carbonyl}-1,2,3,4-tetrahydroisoquinoline-7-carboxamide] |
| 101 to 20000 | CCC[C@H]1N(C(=O)c2ncccc2C(F)(F)F)CCC[C@@]1(Oc1csc(C(F)(F)F)c1)C(=O)N1CCc2cc(N)ccc2C1 [Compound A11, 2-{[(2R,3S)-2-propyl-1-{[3-(trifluoromethyl)pyridin-2-yl]carbonyl}-3-{[5-(trifluoromethyl)thiophen-3-yl]oxy}piperidin-3-yl]carbonyl}-1,2,3,4-tetrahydroisoquinolin-6-amine] |
| 1 to 100 | CCC[C@H]1N(C(=O)c2ncccc2C(F)(F)F)CCC[C@@]1(Oc1csc(C(F)(F)F)c1)C(=O)N1Cc2ccc(F)cc2C[C@@H]1CCCCC(=O)O [Compound A131, 5-[(3S)-6-fluoro-2-{[(2R,3S)-2-propyl-1-{[3-(trifluoromethyl)pyridin-2-yl]carbonyl}-3-{[5-(trifluoromethyl)thiophen-3-yl]oxy}piperidin-3-yl]carbonyl}-1,2,3,4-tetrahydroisoquinolin-3-yl]pentanoic acid] |
| 1 to 100 | CCC[C@H]1N(C(=O)c2ncccc2C(F)(F)F)CCC[C@@]1(Oc1csc(C(F)(F)F)c1)C(=O)N1Cc2ccc(Cl)cc2C[C@@H]1CCCN1CCC[C@H]1COC [Compound A156, (3S)-6-chloro-3-{3-[(2S)-2-(methoxymethyl)pyrrolidin-1-yl]propyl}-2-{[(2R,3S)-2-propyl-1-{[3-(trifluoromethyl)pyridin-2-yl]carbonyl}-3-{[5-(trifluoromethyl)thiophen-3-yl]oxy}piperidin-3-yl]carbonyl}-1,2,3,4-tetrahydroisoquinoline] |
| 1 to 100 | CCC[C@H]1N(C(=O)c2ncccc2C(F)(F)F)CCC[C@@]1(Oc1csc(C(F)(F)F)c1)C(=O)N1Cc2sc(Cl)cc2CC1C(=O)O (stereo partly drawn) [Compound A174, 2-chloro-6-{[(2R,3S)-2-propyl-1-{[3-(trifluoromethyl)pyridin-2-yl]carbonyl}-3-{[5-(trifluoromethyl)thiophen-3-yl]oxy}piperidin-3-yl]carbonyl}-4,5,6,7-tetrahydrothieno[2,3-c]pyridine-5-carboxylic acid] |
| 1 to 100 | CCC[C@H]1N(C(=O)c2ncccc2C(F)(F)F)CCC[C@@]1(Oc1csc(C(F)(F)F)c1)C(=O)N1CCc2cc(Br)ccc2C1CC(=O)O (stereo partly drawn) [Compound A70, (6-bromo-2-{[(2R,3S)-2-propyl-1-{[3-(trifluoromethyl)pyridin-2-yl]carbonyl}-3-{[5-(trifluoromethyl)thiophen-3-yl]oxy}piperidin-3-yl]carbonyl}-1,2,3,4-tetrahydroisoquinolin-1-yl)acetic acid] |
| 101 to 20000 | CCC[C@H]1N(C(=O)c2ncccc2C(F)(F)F)CCC[C@@]1(Oc1csc(C(F)(F)F)c1)C(=O)N1CCc2sc(Cl)cc2C1C(=O)NC (stereo partly drawn) [Compound A34, 2-chloro-N-methyl-5-{[(2R,3S)-2-propyl-1-{[3-(trifluoromethyl)pyridin-2-yl]carbonyl}-3-{[5-(trifluoromethyl)thiophen-3-yl]oxy}piperidin-3-yl]carbonyl}-4,5,6,7-tetrahydrothieno[3,2-c]pyridine-4-carboxamide] |
| 101 to 20000 | CCC[C@H]1N(C(=O)c2ncccc2C(F)(F)F)CCC[C@@]1(Oc1csc(C(F)(F)F)c1)C(=O)N1CCc2cc(Cl)ccc2C1CN1CCCC1 (stereo partly drawn) [Compound A15, 6-chloro-2-{[(2R,3S)-2-propyl-1-{[3-(trifluoromethyl)pyridin-2-yl]carbonyl}-3-{[5-(trifluoromethyl)thiophen-3-yl]oxy}piperidin-3-yl]carbonyl}-1-(pyrrolidin-1-ylmethyl)-1,2,3,4-tetrahydroisoquinoline] |
